The source made the active and inactive calls. The rule behind the calls is not given here.
Assays:
THP-1 [1] = test: Effect on cleaved caspase-4 expression in human THP-1 cells at 2 uM pretreated with pam3CSK4 for 3 hrs followed by compound addition for 30 mins prior to cytosolic LPS stimulation for 16 hrs by ELISA; type: functional, cell-based; conditions: time 16.5 hrs
Mus musculus [2] = test: (§1) Anti-inflammatory activity in MSU/C18:0 free fatty acid induced Kunming mouse model of gouty arthritis assessed as reduction IL-1beta expression at 5 to 20 mg/kg, ip preadministered with compound for 30 mins followed by MSU/C18:0 free fatty acid injection and measured after 24 hrs by Western blotting analysis; type: functional, organism-based; conditions: dose 5-20 mg/kg, time 24.5 hrs
Mus musculus [3] = organism: Mus musculus; test: Inhibition of pain perception in MSU/C18:0 free fatty acid induced Casp1 knockout mouse measured upto 24 hrs; type: functional, organism-based
THP-1 [4] = test: Effect on pro-1L-1beta protein expression in LPS/nigericin stimulated human THP-1 cells supernatant at 0.5 to 2 uM by Western blotting analysis; type: functional, cell-based; conditions: dose 0.5-2 µM
[5] = tested on: Caspase-1 (Homo sapiens), P29466 [C285A]; test: Binding affinity to Flag-tagged caspase-1 C285A mutant (unknown origin) expressed in HEK293T cells by pull-down assay; type: cell-based; conditions: dose 2.0 µM
[6] = Acute toxicity in Kunming mouse assessed as kidney damage at 100 mg/kg, ip administered for 14 days; type: organism-based; conditions: in vivo, 336 h, time 14 day
THP-1 [7] = test: Effect on pro-caspase-4 expression in human THP-1 cells at 2 uM pretreated with pam3CSK4 for 3 hrs followed by compound addition for 30 mins prior to cytosolic LPS stimulation for 16 hrs by ELISA; type: functional, cell-based; conditions: time 16.5 hrs
[8] = tested on: Caspase-1 (Homo sapiens), P29466 [C244A]; test: Inhibition of recombinant caspase-1 C244A mutant (unknown origin) at 100 uM relative to control
Caspase-1 (Homo sapiens) = biological target: T1, Caspase-1 (Homo sapiens) (UniProt P29466); test: Inhibition of recombinant human caspase-1 expressed in Escherichia coli BL21 cells assessed as remaining activity at 10 uM using […] as substrate incubated for 30 mins relative to control
T1 sequence (whole entry): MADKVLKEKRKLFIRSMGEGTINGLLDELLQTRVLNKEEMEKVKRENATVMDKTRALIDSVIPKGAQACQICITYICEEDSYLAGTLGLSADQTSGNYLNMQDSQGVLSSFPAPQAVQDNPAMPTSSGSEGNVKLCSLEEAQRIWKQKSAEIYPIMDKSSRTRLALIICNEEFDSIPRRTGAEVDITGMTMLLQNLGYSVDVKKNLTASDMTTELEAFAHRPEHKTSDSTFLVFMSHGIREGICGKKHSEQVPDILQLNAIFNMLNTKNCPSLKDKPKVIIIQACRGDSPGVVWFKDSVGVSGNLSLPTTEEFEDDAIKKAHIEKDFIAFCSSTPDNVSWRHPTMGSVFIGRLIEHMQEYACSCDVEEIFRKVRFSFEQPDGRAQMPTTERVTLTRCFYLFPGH

J774.A1 [9] = test: Effect on ASC speck formation in mouse J774.A1 cells at 2 uM pretreated with LPS for 3 hrs prior to compound addition followed by nigericin stimulation; type: functional, cell-based
[10] = Tmax in rat at 25 mg/kg, po; type: ADME, organism-based; conditions: in vivo
J774.A1 [11] = test: Inhibition of mitochondrial damage in LPS/nigericin stimulated mouse J774.A1 cells; type: functional, cell-based
THP-1 [12] = test: Effect on pro-caspase 1 protein expression in LPS/MSU stimulated human THP-1 cells supernatant by Western blotting analysis; type: functional, cell-based
[13] = tested on: Caspase-1 (Homo sapiens), P29466 [C244A]; test: Binding affinity to recombinant caspase-1 C244A mutant (unknown origin) at 2 uM by SDS-PAGE analysis
J774.A1 [14] = test: Inhibition of ASC colocalization in LPS/nigericin stimulated mouse J774.A1 cells; type: functional, cell-based
[15] = tested on: Caspase-1 (Homo sapiens), P29466 [C270A]; test: Inhibition of recombinant caspase-1 C270A mutant (unknown origin) at 100 uM relative to control
THP-1 [16] = test: Effect on cleaved caspase-5 expression in human THP-1 cells at 2 uM pretreated with pam3CSK4 for 3 hrs followed by compound addition for 30 mins prior to cytosolic LPS stimulation for 16 hrs by ELISA; type: functional, cell-based; conditions: time 16.5 hrs
Mus musculus [17] = test: Anti-inflammatory activity in LPS/MSU-induced C57BL/6 mouse model of acute peritonitis assessed as reduction in IL-1beta expression at 20 mg/kg, ip preadministered intraperitoneally with compound for 30 mins followed by MSU injection and measured after 6 hrs by ELISA; type: functional, organism-based; conditions: time 6.5 hrs
THP-1 [18] = test: Inhibition of p20 fragment of IL-1beta protein expression in LPS/MSU stimulated human THP-1 cells supernatant by Western blotting analysis; type: functional, cell-based
[19] = tested on: Caspase-1 (Homo sapiens), P29466 [C285A]; test: Binding affinity to recombinant caspase-1 C285A mutant (unknown origin) at 2 uM by SDS-PAGE analysis
J774.A1 [20] = test: Inhibition of ROS production in LPS/nigericin stimulated mouse J774.A1 cells; type: functional, cell-based
[21] = biological target: NACHT, LRR and PYD domains-containing protein 3 (Mus musculus) (UniProt Q8R4B8); test: Inhibition of NLRP3 inflammasome activation in LPS/ATP stimulated mouse J774.A1 cells assessed as reduction in IL-18 production incubated for 30 mins by ELISA; type: cell-based
Mus musculus [22] = test: as §1, with “effect on ASC” for “reduction IL-1beta”; type: functional, organism-based; conditions: dose 5-20 mg/kg, time 24.5 hrs
[23] = biological target: NACHT, LRR and PYD domains-containing protein 3 (Mus musculus) (UniProt Q8R4B8); test: Inhibition of NLRP3 inflammasome activation in LPS/MSU stimulated mouse J774.A1 cells assessed as reduction in IL-1beta production incubated for 4 hrs by ELISA; type: cell-based
[24] = tested on: Caspase-1 (Homo sapiens), P29466 [C169A]; test: Binding affinity to recombinant caspase-1 C169A mutant (unknown origin) at 2 uM by SDS-PAGE analysis
THP-1 [25] = test: Effect on pro-caspase 1 protein expression in LPS/ATP stimulated human THP-1 cells supernatant by Western blotting analysis; type: functional, cell-based
THP-1 [26] = test: Inhibition of p20 fragment of caspase 1 protein expression in LPS/nigericin stimulated human THP-1 cells supernatant at 0.5 to 2 uM by Western blotting analysis; type: functional, cell-based; conditions: dose 0.5-2 µM
J774.A1 [27] = test: Cytotoxicity against mouse J774.A1 cells at 2 uM incubated for 1 to 12 hrs by CCK-8 method; type: toxicity, cell-based; conditions: j774.a1, 2 µM, time 1-12 hrs
J774.A1 [28] = test: Inhibition of pyroptosis in mouse J774.A1 cells assessed as reduction in cleaved GSDMD expression at 0.5 to 2 uM pretreated with LPS for 3 hrs followed by compound addition in presence of nigericin by Western blotting analysis; type: functional, cell-based; conditions: dose 0.5-2 µM
J774.A1 [29] = test: Inhibition of pyroptosis in mouse J774.A1 cells assessed as reduction in LDH release at 0.5 to 2 uM pretreated with LPS for 3 hrs followed by compound addition in presence of nigericin; type: functional, cell-based; conditions: dose 0.5-2 µM
HEK293T = test: Inhibition of recombinant caspae-1 C285A/C397A double mutant (unknown origin) to GSDMD (unknown origin) interaction expressed in HEK293T cells; type: cell-based; conditions: Homo sapiens

Sequence of Caspase-1 (Homo sapiens), P29466 [C285A] (P29466 whole entry C285A): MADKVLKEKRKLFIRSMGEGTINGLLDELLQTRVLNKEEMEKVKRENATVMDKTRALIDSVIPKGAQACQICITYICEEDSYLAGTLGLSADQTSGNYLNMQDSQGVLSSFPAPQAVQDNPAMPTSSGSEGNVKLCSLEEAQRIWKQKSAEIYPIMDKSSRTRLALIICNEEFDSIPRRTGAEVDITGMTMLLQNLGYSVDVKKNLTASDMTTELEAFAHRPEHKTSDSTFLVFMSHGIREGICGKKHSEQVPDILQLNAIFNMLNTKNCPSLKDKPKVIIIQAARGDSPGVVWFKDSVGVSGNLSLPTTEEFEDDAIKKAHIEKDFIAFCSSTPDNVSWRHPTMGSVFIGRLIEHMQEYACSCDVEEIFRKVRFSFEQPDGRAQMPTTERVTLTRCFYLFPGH
Sequence of NACHT, LRR and PYD domains-containing protein 3 (Mus musculus) (Q8R4B8 whole entry, the tested form may be a part): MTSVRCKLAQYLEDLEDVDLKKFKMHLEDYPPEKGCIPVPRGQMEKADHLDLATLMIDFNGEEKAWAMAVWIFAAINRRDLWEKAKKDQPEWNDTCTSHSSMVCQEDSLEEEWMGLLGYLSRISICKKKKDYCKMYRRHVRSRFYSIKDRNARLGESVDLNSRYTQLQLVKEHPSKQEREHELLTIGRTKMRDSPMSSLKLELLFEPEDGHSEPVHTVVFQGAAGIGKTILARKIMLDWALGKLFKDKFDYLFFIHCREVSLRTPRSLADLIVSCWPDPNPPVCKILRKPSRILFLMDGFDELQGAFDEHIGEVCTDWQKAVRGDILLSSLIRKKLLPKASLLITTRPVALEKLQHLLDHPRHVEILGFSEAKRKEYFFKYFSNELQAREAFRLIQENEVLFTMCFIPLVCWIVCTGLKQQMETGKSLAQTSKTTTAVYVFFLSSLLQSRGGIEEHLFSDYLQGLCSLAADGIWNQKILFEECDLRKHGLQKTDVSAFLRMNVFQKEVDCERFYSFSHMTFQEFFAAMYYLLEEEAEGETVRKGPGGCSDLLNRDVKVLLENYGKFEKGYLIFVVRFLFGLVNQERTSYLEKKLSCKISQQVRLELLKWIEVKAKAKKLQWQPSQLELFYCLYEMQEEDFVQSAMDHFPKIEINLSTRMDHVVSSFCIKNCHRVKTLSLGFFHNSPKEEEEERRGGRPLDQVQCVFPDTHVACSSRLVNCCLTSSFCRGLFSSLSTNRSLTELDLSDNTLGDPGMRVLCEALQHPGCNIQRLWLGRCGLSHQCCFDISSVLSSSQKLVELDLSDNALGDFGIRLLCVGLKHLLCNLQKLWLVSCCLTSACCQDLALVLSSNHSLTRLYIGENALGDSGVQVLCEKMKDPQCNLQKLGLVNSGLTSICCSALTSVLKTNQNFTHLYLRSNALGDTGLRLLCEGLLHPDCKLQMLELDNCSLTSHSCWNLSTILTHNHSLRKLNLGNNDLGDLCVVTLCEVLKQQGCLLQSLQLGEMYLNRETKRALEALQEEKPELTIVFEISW
Sequence of Caspase-1 (Homo sapiens), P29466 [C244A] (P29466 whole entry C244A): as the sequence (P29466 whole entry C285A) above, with C244A, A285C counted along it
Sequence of Caspase-1 (Homo sapiens), P29466 [C169A] (P29466 whole entry C169A): as the sequence (P29466 whole entry C285A) above, with C169A, A285C counted along it
Sequence of Caspase-1 (Homo sapiens), P29466 [C270A] (P29466 whole entry C270A): as the sequence (P29466 whole entry C285A) above, with C270A, A285C counted along it

Structure (SMILES): COc1ccc2c(c1)[C@]1(C=C[C@H](N=C=S)C[C@H]1C(=O)OC(C)(C)C)C(=O)N2C(=O)OCc1ccccc1
- Activity (THP-1 [1]): inactive
- Activity (Mus musculus [2]): Active
- inhibition (Mus musculus [3]): inactive
- Activity (THP-1 [4]): inactive
- Activity [5]: inactive
- Activity [6]: Non-Toxic
- Activity (THP-1 [7]): inactive
- inhibition [8]: inactive
- Activity (Caspase-1 (Homo sapiens)): 31%
- inhibition (J774.A1 [9]): Active
- Tmax [10]: 1.5 h
- inhibition (J774.A1 [11]): inactive
- Activity (THP-1 [12]): inactive
- Activity [13]: Active
- inhibition (J774.A1 [14]): Active
- inhibition [15]: inactive
- Activity (THP-1 [16]): inactive
- Activity (Mus musculus [17]): Active
- inhibition (THP-1 [18]): Active
- Activity [19]: inactive
- inhibition (J774.A1 [20]): inactive
- inhibition [21]: Active
- Activity (Mus musculus [22]): inactive
- inhibition [23]: Active
- Activity [24]: Active
- Activity (THP-1 [25]): inactive
- inhibition (THP-1 [26]): Active
- Activity (J774.A1 [27]): Non-Toxic
- inhibition (J774.A1 [28]): Active
- inhibition (J774.A1 [29]): Active
- inhibition (HEK293T): inactive
